Results on 17 compounds are retold here after patent publication US12053470B2, “Pharmaceutical combination comprising an ALK inhibitor and a SHP2 inhibitor” (Novartis AG, priority 2017, dated 2024).

One experiment deals with SHP2 (Homo sapiens (Human), UniProt Q06124). In words: SHP2 allosteric inhibition assay (DiFMUP prompt fluorescence). Format: biochemical.
Experiment [1] deals with Ceritinib resistant MGH049 cells. As to the kind of experiment: Cell colony formation assay with ceritinib resistant MGH049 cells.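 As to all read-outs here: tested compounds are SHP2 inhibitors given alone, colonies fixed and crystal violet stained, DMSO reference taken as the mean of six readings.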 Format: cell-based, human. Particulars: 7 days; for activity at 3 µM: Homo sapiens, 168 h, compound of Table 1 (3 μM) alone, normalized to DMSO without compound = 100, read-out: Normalized Crystal Violet abs. (590 nm) DMSO.
Experiment [2] relates to MGH049, MGH045-2A and MGH073-2B cells. As to the kind of experiment: Cell colony formation assay (crystal violet, FIG. 1). Format: cell-based, human. As to conditions: Compound No. 1 5 μM, 14 days. The source says: FIG. 1. […]. For each cell line, all dishes were fixed, stained and photographed at the same time.
The MGH049, MGH045-2A and MGH073-2B cell lines were established at Massachusetts General Hospital. MGH049 is described in Friboulet L, et al. Cancer Discov. 2014 June; 4(6):662-73. MGH045 is described in Friboulet L, et al. Cancer Discov. 2014 June; 4(6):662-73). MGH045-1A, is described in Science, 2014, December 19; 346(6216):1480-1).
All human lung cancer samples were obtained from patients with informed consent, and all procedures were carried out under an Institutional Review Board (IRB)-approved protocol. The cell lines were cultured in DMEM (ATCC) supplemented with 10% FBS, or in RPMI (ATCC) supplemented with 15% FBS.
Cell colony formation assays were used to assess cell viability and proliferation after compound treatments. Cells were plated into 6-well tissue culture plates (6×10^5 cells/well) in a total volume of 2 mL. After 24 hours, compounds were added to the plates. At the end points of the assays, cells were fixed, stained with crystal violet and photographed.
[…]. […] […].

The structures appear in SMILES notation.

Chain of SHP2 (Q06124 whole entry): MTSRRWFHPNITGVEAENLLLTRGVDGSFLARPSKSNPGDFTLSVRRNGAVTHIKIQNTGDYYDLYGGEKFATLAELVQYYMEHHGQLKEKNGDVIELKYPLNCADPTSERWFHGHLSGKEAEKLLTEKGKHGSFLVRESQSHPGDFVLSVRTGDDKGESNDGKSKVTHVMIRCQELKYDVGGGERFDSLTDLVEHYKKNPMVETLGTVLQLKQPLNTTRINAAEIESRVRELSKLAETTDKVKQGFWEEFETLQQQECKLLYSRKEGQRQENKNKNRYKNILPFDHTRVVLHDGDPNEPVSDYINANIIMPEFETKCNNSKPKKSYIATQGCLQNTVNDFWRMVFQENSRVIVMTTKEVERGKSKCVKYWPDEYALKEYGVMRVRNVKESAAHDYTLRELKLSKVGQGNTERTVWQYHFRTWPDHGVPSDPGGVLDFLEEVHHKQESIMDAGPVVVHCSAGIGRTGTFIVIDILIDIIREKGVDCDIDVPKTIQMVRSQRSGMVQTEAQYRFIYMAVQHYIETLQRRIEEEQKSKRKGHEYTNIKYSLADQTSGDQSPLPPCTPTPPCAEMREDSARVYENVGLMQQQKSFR

In the case of `Nc1nc(N2CCC3(CCCN3)CC2)cnc1-c1cccc(Cl)c1Cl` [compound 8, 3-(2,3-dichlorophenyl)-6-(1,8-diazaspiro[4.5]decan-8-yl)pyrazin-2-amine], at SHP2, the IC50 came out at 155 nM. For the same compound, the activity at 3 µM in experiment [1] was determined as 99.9%.

As for `C[C@@H]1OCC2(CCN(c3cnc(Sc4cc(N)nc(Cl)c4Cl)cn3)CC2)[C@@H]1N` [compound 21, (3S,4S)-8-(5-((6-amino-2,3-dichloropyridin-4-yl)thio)pyrazin-2-yl)-3-methyl-2-oxa-8-azaspiro[4.5]decan-4-amine], on SHP2, the IC50 was 14 nM. The activity at 3 µM in experiment [1] is 48.2%.

With `Nc1nc(N2CCC3(CCC[C@H]3N)CC2)cnc1-c1cccc(Cl)c1Cl` [compound 9, (R)-8-(6-amino-5-(2,3-dichlorophenyl)pyrazin-2-yl)-8-azaspiro[4.5]decan-1-amine], the IC50 against SHP2 came to 73 nM. Moreover, the activity at 3 µM in experiment [1] is 118%.

On SHP2, `CC1(N)CCN(c2cnc(Sc3cccc(NC(=O)C4=C(O)CN(c5ccccc5)C4=O)c3Cl)c(N)n2)CC1` [compound 46, N-(3-((3-amino-5-(4-amino-4-methylpiperidin-1-yl)pyrazin-2-yl)thio)-2-chlorophenyl)-4-hydroxy-2-oxo-1-phenyl-2,5-dihydro-1H-pyrrole-3-carboxamide] yielded a half-inhibitory concentration (IC50) of 4 nM. In addition, the activity at 3 µM in experiment [1] is 70.9%.

Turning to `C[C@H]1C[C@@H](N)C2(CCN(c3cnc(Sc4ccnc(N)c4Cl)cn3)CC2)C1` [compound 19, (1R,3R)-8-(5-((2-amino-3-chloropyridin-4-yl)thio)pyrazin-2-yl)-3-methyl-8-azaspiro[4.5]decan-1-amine], half-maximal inhibition on SHP2 (IC50) required 6 nM. Also, the activity at 3 µM in experiment [1] came out at 96.1%.

`Cn1c(N2CCC3(CCC[C@H]3N)CC2)nc2n[nH]c(-c3cccc(Cl)c3Cl)c2c1=O` [compound 37, (R)-6-(1-amino-8-azaspiro[4.5]decan-8-yl)-3-(2,3-dichlorophenyl)-5-methyl-2,5-dihydro-4H-pyrazolo[3,4-d]pyrimidin-4-one] yielded an IC50 at SHP2 of 26 nM. The activity at 3 µM in experiment [1] came to 45%.

Turning to `Nc1nccc(Sc2cnc(N3CCC4(CC3)COC[C@H]4N)cn2)c1Cl` [compound 24, (S)-8-(5-((2-amino-3-chloropyridin-4-yl)thio)pyrazin-2-yl)-2-oxa-8-azaspiro[4.5]decan-4-amine], on SHP2, inhibition was half-maximal at 6 nM (IC50). Further, the activity at 3 µM in experiment [1] amounted to 43.5%.

`C[C@@H]1OCC2(CCN(c3cnc(Sc4ccnc(N)c4Cl)cn3)CC2)[C@@H]1N` [compound 22, (3S,4S)-8-(5-((2-amino-3-chloropyridin-4-yl)thio)pyrazin-2-yl)-3-methyl-2-oxa-8-azaspiro[4.5]decan-4-amine] yielded a concentration for half-maximal inhibition (IC50) at SHP2 of 8 nM. Besides, the activity at 3 µM in experiment [1] amounted to 19.5%.

`Nc1nc(N2CCC3(CC2)COC[C@H]3N)cnc1Sc1cccnc1C(F)(F)F` [compound 10, (S)-8-(6-amino-5-((2-(trifluoromethyl)pyridin-3-yl)thio)pyrazin-2-yl)-2-oxa-8-azaspiro[4.5]decan-4-amine] displayed an IC50 on SHP2 of 25 nM.

On SHP2, `CC[C@@H]1OCC2(CCN(c3cnc(Sc4ccnc(N)c4Cl)c(N)n3)CC2)[C@@H]1N` [compound 17, (3S,4S)-8-(6-amino-5-((2-amino-3-chloropyridin-4-yl)thio)pyrazin-2-yl)-3-ethyl-2-oxa-8-azaspiro[4.5]decan-4-amine] came in with an IC50 of 9 nM. The activity at 3 µM in experiment [1] worked out at 29.4%.

With `Nc1nc(N2CCC(N)(CF)CC2)cnc1Sc1cccc(NC(=O)c2c(O)nc3ccccn3c2=O)c1Cl` [compound 52, N-(3-((3-amino-5-(4-amino-4-(fluoromethyl)piperidin-1-yl)pyrazin-2-yl)thio)-2-chlorophenyl)-2-hydroxy-4-oxo-4H-pyrido[1,2-a]pyrimidine-3-carboxamide], the IC50 against SHP2 was determined as 5 nM. Moreover, in experiment [1], the activity at 3 µM is 67.9%.

In the case of `CC1CCC2(CCN(c3cnc(Sc4ccnc(N)c4Cl)cn3)CC2)[C@@H]1N` (stereo partly drawn) [compound 20, (1R)-8-(5-((2-amino-3-chloropyridin-4-yl)thio)pyrazin-2-yl)-2-methyl-8-azaspiro[4.5]decan-1-amine], on SHP2, the IC50 is 6 nM. The activity at 3 µM in experiment [1] was found to be 54.7%.

Take `Nc1nccc(Sc2cnc(N3CCC4(CC3)C[C@@H](O)C[C@H]4N)cn2)c1Cl` [compound 18, (2R,4R)-4-amino-8-(5-((2-amino-3-chloropyridin-4-yl)thio)pyrazin-2-yl)-8-azaspiro[4.5]decan-2-ol]: the IC50 against SHP2 was found to be 4.5 nM. Further, in experiment [1], the activity at 3 µM amounted to 32.3%.

`C[C@@H]1OCC2(CCN(c3cnc(-c4cccc(Cl)c4Cl)c(N)n3)CC2)[C@@H]1N` [compound 7, (3S,4S)-8-(6-amino-5-(2,3-dichlorophenyl)pyrazin-2-yl)-3-methyl-2-oxa-8-azaspiro[4.5]decan-4-amine]: at SHP2, half-maximal inhibition (IC50) required 39 nM. In addition, the activity at 3 µM in experiment [1] came to 98.2%.

On SHP2, `Nc1nc(N2CCC(N)(CF)CC2)cnc1Sc1cccc(NC(=O)c2c(O)nc3n(c2=O)CCCC3)c1Cl` [compound 51, N-(3-((3-amino-5-(4-amino-4-(fluoromethyl)piperidin-1-yl)pyrazin-2-yl)thio)-2-chlorophenyl)-2-hydroxy-4-oxo-6,7,8,9-tetrahydro-4H-pyrido[1,2-a]pyrimidine-3-carboxamide] had an IC50 of 6 nM. Besides, the activity at 3 µM in experiment [1] came to 94%.

On SHP2, `CC1CCC2(CCN(c3cnc(Sc4ccnc(N)c4Cl)c(N)n3)CC2)[C@@H]1N` (stereo partly drawn) [compound 15, (1R)-8-(6-amino-5-((2-amino-3-chloropyridin-4-yl)thio)pyrazin-2-yl)-2-methyl-8-azaspiro[4.5]decan-1-amine] gave an IC50 of 9 nM. In addition, the activity at 3 µM in experiment [1] is 31%.

Take `CC1(N)CCN(c2cnc(-c3cccc(Cl)c3Cl)c(N)n2)CC1` [Compound No. 1, 6-(4-amino-4-methylpiperidin-1-yl)-3-(2,3-dichlorophenyl)pyrazin-2-amine]: the “effect on cell growth as a single agent” value in experiment [2] is given as “no effect on cell growth”; in experiment [1] (3 μM, ceritinib-resistant cells), “no effect on cell growth”. For the same compound, in experiment [1], the activity at 3 µM came to 117%.

By IC50 is commonly meant the concentration that inhibits the measured activity by half. Higher therefore signals lower potency.
